In patent US4594425A, “Heterocyclic compounds as antiallergic agents” (American Home Products Corporation, priority 1984, dated 1986):

Legend:
[1] = system: LTD4 induced bronchoconstriction; test: in vivo inhibition of bronchospasm induced in guinea pigs by exogenously administered LTD4; parameters: species or system guinea pig (male Hartley); settings: 50 mg/kg intraduodenal, 10 minutes before LTD4, average of 6 experiments
Procedure: The assay of this Example measures the in vivo ability of the compounds of the invention to inhibit the bronchospasm induced in guinea pigs by the exogenously administered leukotrienes C4 and/or D4. This assay is essentially a measure of the SRS-A antagonist properties of the compounds tested.
This assay is carried out as follows:
Male Hartley strain guinea pigs (350-600 g) are anesthetized with pentobarbital sodium (50 mg/kg, i.p.). The jugular vein is cannulated for injection of drugs and the carotid artery for monitoring blood prerssure. The trachea is cannulated for artificial ventilation by a miniature Starling pump and for indirect measurement of respiratory volume changes as described infra. Additional pentobarbital sodium (15 mg/kg, i.v.) is administered to arrest spontaneous respiration. Submaximal bronchoconstrictor responses are established in control animals by varying the dose-levels of leukotriene. Intravenous dose-levels of LTC4 range from 1 to 2 μg/kg and for LTD4 the range is from 0.3 to 1 μg/kg. The aerosol bronchoprovocation dose for LTC4 is generated from 1.6 μM solution and for LTD4 from a 2.0 μM solution.
Test drugs are administered either intravenously, by aerosol or orally at 1 or 10 minutes before induction of bronchospasm by administration of either LTC4 or LTD4 at the predetermined dose-levels. Aerosols of soluble drugs or leukotrienes are produced in-line for 10 seconds only by actuation of an ultrasonic nebulizer (Monaghan). Aerosolized drug dosage is expressed in terms of solution concentration and by a fixed aerosol exposure time (approximately 10 seconds). Control animals receive saline in place of drug.
Respiratory volume changes are determined by a calibrated piston whose travel is recorded, via a linear transducer, on a Beckman Dynograph recorder. Maximal bronchoconstrictor volume is determined by clamping off the trachea at the end of the experiment. Overflow volumes at 3 and 5 minutes are obtained from the recorded charts.
The overflow volume at 3 and 5 minutes is expressed as a percentage of maximal bronchoconstriction. Combined group values are used from each of these time intervals to determine the inhibitory effect of drugs. [formula] Students t-test for unpaired data is used to determine statistical significance. Dose response curves are generated and ED50 doses are interpolated from the regression lines.
Results for compounds of the invention in this assay, using LTD4 for induction of bronchospasm, are given below: […]

[2] = system: synthesis of LTB4 by rat glycogen-elicited polymorphonuclear leukocytes (lipoxygenase); test: inhibition of LTB4 (5,12-diHETE) synthesis by rat glycogen-elicited polymorphonuclear leukocytes; type: cell-based, rat (Wistar); settings: Leukocyte; rat PMN, A23187 10 μM, [14C] arachidonic acid, 37° C.; read-out: 50% Inhibitory Concentration (IC50) LTB4
Procedure: (§1) This is especially true with respect to 5,12-diHETE, which is also denoted as LTB4 [see Ford-Hitchinson, J. Roy. Soc. Med., 74, 831 (1981)]. The assay of this Example measures the ability of the compounds of the invention to inhibit the synthesis of 5-HETE and LTB4 by rat glycogen-elicited polymorphonuclear leukocytes.
(§2) The assay is carried out as follows:
(§3) Peritoneal PMN are obtained from female Wistar rats (150-250 g) that received an i.p. injection of 6% glycogen (10 ml). After 24 hours, rats are killed by CO2 asphyxiation and peritoneal cells are harvested by peritoneal lavage using Ca^++ and Mg^++ free Hanks' balanced salt solution (HBSS). The peritoneal exudate is centrifuged at 400 g for 10 minutes. After centrifugation, the lavaged fluid is removed and the cell pellet is resuspended in HBSS containing Ca^++ and Mg^++ and 10 mM L-cysteine at a concentration of 2×10^7 cells/ml. To 1 ml portions of cell suspension, test drugs or vehicle are added and incubated at 37° C. for 10 minutes. Following this preincubation, the calcium ionophore (10 μM), A23187, is added together with 0.5 μCi [^14 C] arachidonic acid and further incubated for 10 minutes. The reaction is stopped by the addition of ice cold water (3 ml) and acidifying to pH 3.5. Lipoxygenase products are then extracted twice into diethyl ether. The pooled ether extracts are evaporated to dryness under nitrogen and the residue is redissolved in a small volume of methanol and spotted on aluminum backed pre-coated thin layer chromatographic plates. The samples are then co-chromatographed with authentic reference 5-HETE, 12-HETE and 5,12-diHETE in the solvent system-hexane:ether:acetic acid (50:50:3). After chromatography, the areas associated with 5-HETE and 5,12-diHETE standards are identified by autoradiography, cut out and quantitated by liquid scintillation.
(§4) Results are expressed as % inhibition of [^14 C]5-HETE and [^14 C]LTB4 (5,12-HETE) synthesis. [formula]
(§5) Testing compounds of the invention in this assay and using the antioxident 3-amino-1-[m-(trifluoromethyl)phenyl]-2-pyrazoline (BW755C) as a standard, the following results are obtained.

[3] = system: synthesis of 5-HETE by rat glycogen-elicited polymorphonuclear leukocytes (lipoxygenase); test: inhibition of 5-HETE synthesis by rat glycogen-elicited polymorphonuclear leukocytes; type: cell-based, rat (Wistar); settings: Leukocyte; rat PMN, A23187 10 μM, [14C] arachidonic acid, 37° C.; read-out: 50% Inhibitory Concentration (IC50) 5-HETE
Procedure: as §1, §2, §3, §4, §5

[4] = system: ovalbumin induced bronchospasm mediated by endogenous products of the lipoxygenase oxidation of arachidonic acid; test: in vivo inhibition of ovalbumin induced bronchospasm in sensitized guinea pigs (endogenous mediators); parameters: species or system guinea pig (male Hartley); settings: 50 mg/kg intraduodenal, 10 minutes before ovalbumin challenge, average of 6 experiments

| IC50 [2] [µM] | IC50 [3] [µM] | Structure (SMILES) | % Inhibition (Statistical Average), Overflow Volume at 3 min. [1] [%] | % Inhibition (Statistical Average), Overflow Volume at 5 min. [1] [%] | % Inhibition (Statistical Average), Overflow Volume at 3 min. [4] [%] | % Inhibition (Statistical Average), Overflow Volume at 5 min. [4] [%] |
| --- | --- | --- | --- | --- | --- | --- |
| 0.49 | 0.36 | COC(=O)CCC(=O)N(O)c1cccc(OCc2nc3ccccc3s2)c1 [Example 6, 4-[[3-[(2-benzthiazolyl)methoxy]phenyl]hydroxylamino]-4-oxobutanoic acid, methyl ester] | 78 | 78 | – | – |
| – | – | COC(=O)CC(=O)Nc1cccc(OCc2nc3ccccc3n2C)c1 [Example 2d, 3-[[3-[(1-methyl-2-benzimidazolyl)methoxy]phenyl]amino]-3-oxopropanoic acid, methyl ester] | 62 | 59 | – | – |
| 27.3 | 17.9 | COC(=O)CCC(=O)Nc1cccc(OCc2cc3ccccc3o2)c1 [Example 3, 4-[[3-[(2-benzofuranyl)methoxy]phenyl]amino]-4-oxobutanoic acid, methyl ester] | – | – | – | – |
| – | – | COC(=O)CC(=O)Nc1cccc(OCc2nc3ccccc3s2)c1 [Example 2c, 3-[[3-[(2-benzthiazolyl)methoxy]phenyl]amino]-3-oxopropanoic acid, methyl ester] | 77 | 76 | – | – |
| 30 | 43 | NC1=NN(c2cccc(C(F)(F)F)c2)CC1 [BW755C, 3-amino-1-[m-(trifluoromethyl)phenyl]-2-pyrazoline, reference compound] | – | – | – | – |
| 26 | 15.7 | COC(=O)CCC(=O)Nc1cccc(OCc2nc3ccccc3s2)c1 [Example 1, 4-[[3-[(2-benzthiazolyl)methoxy]phenyl]amino]-4-oxobutanoic acid, methyl ester] | 33 | 41 | 68 | 49 |
| 65.5 | 69.7 | COC(=O)CCC(=O)Nc1cccc(OCc2nc3ccccc3o2)c1 [Example 2a, 4-[[3-[(2-benzoxazolyl)methoxy]phenyl]amino]-4-oxobutanoic acid, methyl ester] | – | – | – | – |
| – | – | COC(=O)CCC(=O)Nc1cccc(OCc2nc3ccccc3n2C)c1 [Example 2b, 4-[[3-[(1-methyl-2-benzimidazolyl)methoxy]phenyl]amino]-4-oxobutanoic acid, methyl ester] | 82 | 82 | 54 | 49 |
